Biological target: T1, Seed linoleate 13S-lipoxygenase-1 (Glycine max, UniProt P08170)
T1 sequence (P08170 whole entry): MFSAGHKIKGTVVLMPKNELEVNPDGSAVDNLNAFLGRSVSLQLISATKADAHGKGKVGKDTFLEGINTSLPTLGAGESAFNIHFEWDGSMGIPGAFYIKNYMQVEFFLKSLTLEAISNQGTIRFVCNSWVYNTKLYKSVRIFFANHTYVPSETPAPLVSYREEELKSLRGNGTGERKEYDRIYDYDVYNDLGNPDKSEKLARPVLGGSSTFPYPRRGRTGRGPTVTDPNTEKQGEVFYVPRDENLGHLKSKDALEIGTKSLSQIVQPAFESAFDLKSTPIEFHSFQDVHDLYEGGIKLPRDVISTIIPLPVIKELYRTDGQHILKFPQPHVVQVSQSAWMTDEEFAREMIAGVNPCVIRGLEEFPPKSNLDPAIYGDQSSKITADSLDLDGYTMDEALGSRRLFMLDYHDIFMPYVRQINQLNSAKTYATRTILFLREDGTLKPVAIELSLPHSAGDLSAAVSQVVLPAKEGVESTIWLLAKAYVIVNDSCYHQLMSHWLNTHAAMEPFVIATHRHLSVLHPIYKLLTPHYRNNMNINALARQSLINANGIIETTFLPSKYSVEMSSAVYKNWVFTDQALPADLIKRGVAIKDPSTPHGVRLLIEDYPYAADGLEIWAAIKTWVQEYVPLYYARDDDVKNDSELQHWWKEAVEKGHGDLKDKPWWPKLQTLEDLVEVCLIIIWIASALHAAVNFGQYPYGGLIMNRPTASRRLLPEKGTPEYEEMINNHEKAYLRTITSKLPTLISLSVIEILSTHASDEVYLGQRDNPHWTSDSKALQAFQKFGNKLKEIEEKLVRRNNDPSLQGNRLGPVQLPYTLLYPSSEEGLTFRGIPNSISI
Assay: Inhibition Assay
Conditions: pH 8; 25 °C
Protocol: In vitro liposygenase inhibition assay activity was measured by modifying the spectrophotometric method developed by Tappel. The compound was prepared in methanol at various concentrations ([…]). The inhibition by lipoxygenase activity by 50% (IC50) was determined by monitoring the effect of increasing concentrations of these compounds in the assays on the degree of inhibition.

IC50	Structure (SMILES)
33 µM	CC1(C)CC(=O)C(C(c2ccccc2)C2C(=O)CC(C)(C)CC2=O)C(=O)C1 [Tetraketone, 2]
16.3 µM	Cc1ccc(C(C2C(=O)CC(C)(C)CC2=O)C2C(=O)CC(C)(C)CC2=O)cc1 [Tetraketone, 3]
198 µM	CC1(C)CC(=O)C(C(c2ccccc2O)C2C(=O)CC(C)(C)CC2=O)C(=O)C1 [Tetraketone, 4]
26.4 µM	CC1(C)CC(=O)C(C(c2ccc(O)cc2)C2C(=O)CC(C)(C)CC2=O)C(=O)C1 [Tetraketone, 6]
196 µM	COc1ccccc1C(C1C(=O)CC(C)(C)CC1=O)C1C(=O)CC(C)(C)CC1=O [Tetraketone, 7]
21.3 µM	COc1ccc(C(C2C(=O)CC(C)(C)CC2=O)C2C(=O)CC(C)(C)CC2=O)cc1 [Tetraketone, 8]
33.1 µM	COc1ccc(C(C2C(=O)CC(C)(C)CC2=O)C2C(=O)CC(C)(C)CC2=O)c(OC)c1 [Tetraketone, 9]
30.8 µM	CCOc1ccc(C(C2C(=O)CC(C)(C)CC2=O)C2C(=O)CC(C)(C)CC2=O)cc1 [Tetraketone, 10]
17.5 µM	CN(C)c1ccc(C(C2C(=O)CC(C)(C)CC2=O)C2C(=O)CC(C)(C)CC2=O)cc1 [Tetraketone, 11]
28.4 µM	CC1(C)CC(=O)C(C(c2ccccc2Cl)C2C(=O)CC(C)(C)CC2=O)C(=O)C1 [Tetraketone, 12]
52.9 µM	CC1(C)CC(=O)C(C(c2cccc(Br)c2)C2C(=O)CC(C)(C)CC2=O)C(=O)C1 [Tetraketone, 14]
27.1 µM	CC1(C)CC(=O)C(C(c2ccc(O)c(Br)c2)C2C(=O)CC(C)(C)CC2=O)C(=O)C1 [Tetraketone, 15]
191 µM	CC1(C)CC(=O)C(C(c2ccccc2[N+](=O)[O-])C2C(=O)CC(C)(C)CC2=O)C(=O)C1 [Tetraketone, 16]
7.8 µM	CC1(C)CC(=O)C(C(c2ccc(/C=C/c3ccccc3)cc2)C2C(=O)CC(C)(C)CC2=O)C(=O)C1 [Tetraketone, 19]
35.4 µM	CC1(C)CC(=O)C(C(c2ccc(/C(Br)=C/c3ccccc3)cc2)C2C(=O)CC(C)(C)CC2=O)C(=O)C1 [Tetraketone, 20]
51.5 µM	CC1(C)CC(=O)C(C(c2ccco2)C2C(=O)CC(C)(C)CC2=O)C(=O)C1 [Tetraketone, 21]
12.5 µM	Cc1ccc(C(C2C(=O)CC(C)(C)CC2=O)C2C(=O)CC(C)(C)CC2=O)o1 [Tetraketone, 22]

— BindingDB's records for doi:10.1080/14756360701408754 (Pharmaceutical Research Centre, 2008)
